Results as given in patent US8293481B2, “Biomarkers for chronic vascular dysfunction” (Mayo Foundation for Medical Education and Research, priority 2006, dated 2012).

Legend:
Assay type in all cases: in vivo, rat
[1] = system: aortic smooth muscle strips; assay: Dose-response relationship to 8-Br-cGMP, relaxation of aortic smooth muscle strips from treated rats; settings: post-infarct animals treated with captopril, at both 2 and 4 weeks; P>0.05
Description: After intubation, rats were ventilated continuously (room air) using a small animal ventilator (Model 683, Harvard Apparatus, Holliston, Mass.). A left lateral thoracotomy incision was made along the 5th intercostal space and after the pericardium was opened, the heart was exteriorized using a retention suture placed at the apex. The left anterior descending coronary artery (LAD) was ligated twice using 6-0 prolene suture (Ethicon, Cornelia, Ga.). After chest closure with running 3-0 vicryl suture (Ethicon), rats were put in a recovery chamber with a heating pad and warming light. The post-operative survival rate reached 80%. […] Rats were fed a standard diet of Teklad rodent feed (Harlan) ad libitum and kept on a 12:12 h light-dark cycle. Rats were sacrificed at designated time intervals of 2 weeks and 4 weeks after surgery. […] Determination of the dose-response relationship to cGMP: Aortic smooth muscle strips were isolated from rats in the uninfarcted control group without treatment and from both placebo as well as captopril treated group at 2 weeks and 4 weeks post-LAD ligation to determine the dose-response relationship to cGMP. […] After the force reached a steady state, the dose-response relationship to 8-Br-cGMP (Calbiochem, San Diego, Calif.) was determined.

[2] = system: cytochrome c oxidase subunit Va (Cox5a); assay: Affymetrix microarray gene expression in aorta post-infarction; settings: 4 weeks post-infarction, higher with surgery
Description: (§1) After intubation, rats were ventilated continuously (room air) using a small animal ventilator (Model 683, Harvard Apparatus, Holliston, Mass.). A left lateral thoracotomy incision was made along the 5th intercostal space and after the pericardium was opened, the heart was exteriorized using a retention suture placed at the apex. The left anterior descending coronary artery (LAD) was ligated twice using 6-0 prolene suture (Ethicon, Cornelia, Ga.). After chest closure with running 3-0 vicryl suture (Ethicon), rats were put in a recovery chamber with a heating pad and warming light. The post-operative survival rate reached 80%. […] Rats were fed a standard diet of Teklad rodent feed (Harlan) ad libitum and kept on a 12:12 h light-dark cycle. Rats were sacrificed at designated time intervals of 2 weeks and 4 weeks after surgery. […] Isolation of total RNA: […] Surrounding peri-adventitial tissues, fat, and endothelium were then carefully cleaned away and removed. The remaining vascular smooth muscle was then frozen with liquid nitrogen, pulverized into fine powder, and resuspended in 600 μl of Buffer RLT with β-ME (10 μl β-ME: 1 ml Buffer RLT, Qiagen, Valencia, Calif.). The lysate was pipetted directly onto a QIAshredder spin column (Qiagen) placed in a 2 ml collection tube and centrifuged for 5 minutes at 14000 rpm, 4° C. The supernatant was transferred to a new microcentrifuge tube and 1 volume of 70% ethanol was added and mixed. The cleared lysate was then transferred to an RNeasy mini-column (Qiagen) placed in a 2 ml collection tube and spun for 15 seconds at ≧10,000 rpm, 4° C. The flow-through was discarded and 700 μl of Buffer RW1 (Qiagen) was added to the RNeasy column. After the column was spun for 15 seconds at ≧10,000 rpm (4° C.), it was transferred into a new 2 ml collection tube, washed, spun twice with 500 μl Buffer RPE (Qiagen), and eluted with 40 μl of RNase-free water using a microcentrifuge (≧10,000 rpm, 4° C.) for 1 minute. Final RNA samples were stored at −20° C. to prevent degradation. Determination of gene expression using Affymetrix microarrays: Gene expression analysis was conducted using a GeneChip Rat Genome 230 2.0 Array (Affymetrix, West Sacramento, Calif.), with sequences selected from the GENBANK® (World Wide Web at ncbi.nlm.nih.gov) database for expressed sequence tags (dbEST), and Reference Sequence (RefSeq) (Benson et al. (2007) Nucleic Acids Res. 35:D21-25; and Boguski et al. (1993) Nat. Genet. 4:332-333). These sequence clusters were created from the UniGene database (Wheeler et al. (2003) Nucleic Acids Res. 31:28-33; Build 99, June 2002, World Wide Web at ncbi.nlm.nih.gov) and then refined by analysis and comparison with the publicly available draft assembly of the rat genome from the Baylor College of Medicine Human Genome Sequencing Center (Gibbs et al. (2004) Nature 428:493-521). […] GENECHIP® Scanner 3000 and GENECHIP® Operating Software (GCOS) v1.1.1 (Affymetrix, West Sacramento, Calif.), enabled for high-resolution scanning, was used for the final microarray analysis. Differentially expressed genes are listed according to their GeneID number in the National Center for Biotechnology Information (NCBI) database. To ensure accurate analysis, a minimum of 3 ng of good quality total RNA at a concentration of ≧500 pg/μl was required. RNA (1 ng) was tested for its quality using an Agilent 2100 bioanalyzer (Agilent Technologies). A RNA Integrity Number (RIN) was assigned to each sample, and RIN ≧6 was considered satisfactory for proceeding with the microarray analysis. Statistics: The Affymetrix array was used to determine gene expression at 2 weeks and 4 weeks. Uninfarcted control aorta was then compared with both captopril and placebo treated aorta. Similarly, uninfarcted control portal vein was compared with both captopril and placebo treated portal vein. […]

[3] = system: CCAAT/enhancer binding protein (C/EBP) gamma (Cebpg); assay: as above; settings: 4 weeks post-infarction, higher with surgery
Description: as §1

[4] = system: regulated endocrine-specific protein 18 (Resp18); assay: as above; settings: 4 weeks post-infarction, higher with surgery
Description: as §1

glutaminase 2 (Gls2) = assay: as above; settings: 4 weeks, highest in the infarct group without therapy
Description: as §1

afadin (Af6) = assay: as above; settings: 2 weeks, infarcted rats with or without captopril
Description: as §1

[5] = system: acyl-CoA thioesterase (ACOT8); assay: as above; settings: 2 weeks, infarcted rats with or without captopril
Description: as §1

[6] = system: trafficking protein particle complex 1 (Trappc1); assay: as above; settings: 4 weeks post-infarction, higher with surgery
Description: as §1

Compound: C[C@H](CS)C(=O)N1CCC[C@H]1C(=O)O [Captopril, 1-[(2S)-3-mercapto-2-methylpropionyl]-L-proline]
- sensitivity of cGMP-mediated relaxation versus uninfarcted control aorta [1]: not different
- Cox5a expression in the aorta with captopril therapy versus surgery alone [2]: further increase in expression
- Cebpg expression in the aorta with captopril therapy versus surgery alone [3]: further increase in expression
- Resp18 expression in the aorta with captopril therapy versus surgery alone [4]: further increase in expression
- Gls2 expression in the aorta, captopril treated group among the groups (glutaminase 2 (Gls2)): lowest
- Af6 aortic expression level versus control rats without surgery (afadin (Af6)): higher
- ACOT8 aortic expression level versus control rats without surgery [5]: higher
- Trappc1 expression in the aorta with captopril therapy versus surgery alone [6]: further increase in expression
